Laboratory results from BindingDB's records for doi:10.1021/jm201702g (Ambit Biosciences, 2012).

Test: Inhibition of Aurora kinase B in human HCT116 cells assessed as induction of 8N polyploidy

EC50 | Structure (SMILES)
3 nM | Cc1cc(Nc2nc(Sc3ccc(NC(=O)CN4CC[C@@H](C(=O)NC5CCCC5)C4)cc3)nn3cccc23)n[nH]1
3 nM | Cc1cc(Nc2nc(Sc3ccc(NC(=O)CN4CC[C@@H](C(=O)N5CCC(F)(F)C5)C4)cc3)nn3cccc23)n[nH]1
